Laboratory results from patent US11529354B2, “Methods and compositions for the treatment of tuberculosis” (PRESIDENT AND FELLOWS OF HARVARD COLLEGE, priority 2017, dated 2022).
In brackets after ≈: the same amount, converted by molar mass. Where two headings read alike, the source gives them in different places.

How the values were obtained:
[1] = system: clinical Mycobacterium tuberculosis strains (HsRs: 90#, 140#, 74#); experiment: microbe, parasite or virus in culture; type: cell-based
[2] = system: Bacillus Calmette-Guérin (BCG); experiment: organism not typed; type: cell-based, Mycobacterium bovis
MTT cytotoxicity assay = details: human
M. terrae BZ-15 = experiment: MIC on closely related bacteria: M. terrae; type: cell-based; details: Mycolicibacter terrae, BZ15
MTB H37Rv = experiment: microbe, parasite or virus in culture; type: cell-based, Mycobacterium tuberculosis; details: susceptible H37Rv
M. cheelonae BZ-4 = experiment: MIC on closely related bacteria: M. cheelonae; type: cell-based
[3] = system: intracellular BCG within macrophages; type: cell-based, Mycobacterium bovis
M. scrofulaceum BZ-20 = experiment: MIC on closely related bacteria: M. scrofulaceum; type: cell-based; details: Mycobacterium scrofulaceum, BZ20
M. abscessus BZ-24 = experiment: MIC on closely related bacteria: M. abscessus; type: cell-based; details: Mycobacteroides abscessus, BZ24
M. avium A209 = experiment: MIC on closely related bacteria: M. avium; type: cell-based; details: Mycobacterium avium
[4] = system: GFP-expressing BCG in infected THP-1 cells; experiment: microbe, parasite or virus in culture; type: cell-based; details: Mycobacterium tuberculosis variant bovis BCG, THP-1, read-out: IC50, growth of GFP-expressing BCG in infected THP-1 cells
M. xenopi BZ-23 = experiment: MIC on closely related bacteria: M. xenopi; type: cell-based; details: Mycobacterium xenopi, BZ23
in vitro = details: human
[5] = read-out: MIC from in vitro validation
[6] = read-out: MIC from in vitro validation on BCG

SMILES: Cc1ccc2[nH]c3c(c2c1)CCCC3NCc1ccccc1 (centres unmarked) [CAS 118498-98-9, N-benzyl-6-methyl-2,3,4,9-tetrahydro-1H-carbazol-1-amine]
- MIC [1]: 6.4 µg/mL (≈ 22 µM)
- MIC ([1]; strain 74#, HsRs, read-out: MIC): 6.4 µg/mL (≈ 22 µM)
- MIC ([1]; strain 140#, HsRs, read-out: MIC): 3.2 µg/mL (≈ 11 µM)
- MIC [2, 5]: 32 µg/mL (≈ 110 µM)

SMILES: O=[N+]([O-])c1cccc(CNC2CCCc3ccccc32)c1 (centres unmarked) [CAS 353779-33-6, N-(3-nitrobenzyl)-1,2,3,4-tetrahydronaphthalen-1-amine]
- MIC [2, 5]: 128 µg/mL (≈ 453 µM)

SMILES: COc1ccc(N2COc3ccc4cc(Br)ccc4c3C2)cc1 [CAS 376374-34-4, 8-bromo-2-(4-methoxyphenyl)-2,3-dihydro-1H-naphtho[1,2-e][1,3]oxazine]
- MIC [2, 5]: 128 µg/mL (≈ 346 µM)

SMILES: O=C(Nc1cccc(-c2nc3ccccc3[nH]2)c1)c1ccc(C(=O)Nc2cccc(-c3nc4ccccc4[nH]3)c2)cc1 [NSC 61610, 1-N,4-N-bis[3-(1H-benzimidazol-2-yl)phenyl]benzene-1,4-dicarboxamide]
- MIC [2, 6]: 40 µg/mL (≈ 72.9 µM)

SMILES: CO[C@H]1/C=C/O[C@@]2(C)Oc3c(C)c(O)c4c(O)c(c(/C=N/N5CCN(C)CC5)c(O)c4c3C2=O)NC(=O)/C(C)=C\C=C\[C@H](C)[C@H](O)[C@@H](C)[C@@H](O)[C@@H](C)[C@H](OC(C)=O)[C@@H]1C [Rifampicin, reference compound]
- IC50 (MTT cytotoxicity assay): 1 µg/mL (≈ 1.22 µM)

SMILES: c1ccc2cc(OCCOCCOc3ccc4ccccc4c3)ccc2c1 [NSC 37219, 2-[2-(2-naphthalen-2-yloxyethoxy)ethoxy]naphthalene]
- MIC [2, 6]: 80 µg/mL (≈ 223 µM)

SMILES: O=c1/c(=C/c2cc(Br)ccc2F)sc2nc3ccccc3n12 [CAS 292169-72-3, (Z)-2-(5-Bromo-2-fluorobenzylidene)benzo[4,5]imidazo[2,1-b]thiazol-3(2H)-one]
- MIC [2, 5]: > 128 µg/mL

SMILES: O=[N+]([O-])c1ccc(C2CC(c3ccccc3)=Nc3ccccc3S2)cc1 (centres unmarked) [NSC 270738, 2-(4-nitrophenyl)-4-phenyl-2,3-dihydro-1,5-benzothiazepine]
- MIC [2, 6]: 5 µg/mL (≈ 13.9 µM)

SMILES: O=C(O)C1C2C(=O)N(Cc3ccccn3)C[C@]23C=C[C@H]1O3 (stereo partly drawn) [CAS 1164528-69-1, (3aS,6R)-1-oxo-2-(pyridin-2-ylmethyl)-1,2,3,6,7,7a-hexahydro-3a,6-epoxyisoindole-7-carboxylic acid]
- MIC [2, 5]: > 128 µg/mL

SMILES: Cn1ccc(=Nc2ccc(NC(=O)c3ccc(N=c4ccn(C)c5ccc([N+](=O)[O-])cc45)cc3)cc2)cc1 [NSC 260594, 4-[(1-methyl-6-nitroquinolin-4-ylidene)amino]-N-[4-[(1-methylpyridin-4-ylidene)amino]phenyl]benzamide]
- MIC (M. terrae BZ-15): 2.5 µg/mL (≈ 4.95 µM)
- MIC (MTB H37Rv; Mycobacterium tuberculosis, Table 7 and text, read-out: MIC): < 0.625 µg/mL
- MIC (MTB H37Rv; Table 4): <0.625 µg/mL
- MIC (MTB H37Rv; Table 7 and text): <0.625 µg/mL
- MIC (M. cheelonae BZ-4): > 80 µg/mL
- intracellular anti-TB activity against BCG [3]: time- and concentration-dependent anti-TB activity
- MIC (M. scrofulaceum BZ-20): > 80 µg/mL
- performance on BCG compared with isoniazid and rifampicin [2]: performed at levels comparable of isoniazid and rifampicin
- MIC [2, 6]: 0.078 µg/mL (≈ 0.155 µM)
- MIC (M. abscessus BZ-24): > 80 µg/mL
- MIC (M. avium A209): 1.25 µg/mL (≈ 2.48 µM)
- IC50 [4]: 7.8 µg/mL (≈ 15.5 µM)
- MIC (M. xenopi BZ-23): > 80 µg/mL
- IC50 (in vitro): 7.5 µg/mL (≈ 14.9 µM)

SMILES: O=C1CC(c2cccc(O)c2)Nc2ccc3ccccc3c21 (centres unmarked) [CAS 333759-52-7, 3-(3-hydroxyphenyl)-3,4-dihydrobenzo[f]quinolin-1(2H)-one]
- MIC [2, 5]: > 128 µg/mL

SMILES: CO[C@@H]1[C@@H](OC(=O)c2ccc(C)[nH]2)[C@@H](O)[C@H](Oc2ccc3c(O)c(NC(=O)c4ccc(O)c(CC=C(C)C)c4)c(=O)oc3c2Cl)OC1(C)C [NSC 227186, [(3R,4S,5R,6S)-6-[8-chloro-4-hydroxy-3-[[4-hydroxy-3-(3-methylbut-2-enyl)benzoyl]amino]-2-oxochromen-7-yl]oxy-5-hydroxy-3-methoxy-2,2-dimethyloxan-4-yl]5-methyl-1H-pyrrole-2-carboxylate]
- MIC (M. terrae BZ-15): > 80 µg/mL
- MIC (MTB H37Rv; Mycobacterium tuberculosis, Table 4, read-out: MIC): < 0.625 µg/mL
- MIC (M. cheelonae BZ-4): 40 µg/mL (≈ 57.4 µM)
- MIC (M. scrofulaceum BZ-20): 80 µg/mL (≈ 115 µM)
- performance on BCG compared with isoniazid and rifampicin [2]: performed at levels comparable of isoniazid and rifampicin
- MIC [2, 6]: 0.625 µg/mL (≈ 0.897 µM)
- MIC (M. abscessus BZ-24): 40 µg/mL (≈ 57.4 µM)
- MIC (M. avium A209): 80 µg/mL (≈ 115 µM)
- MIC (M. xenopi BZ-23): 80 µg/mL (≈ 115 µM)

SMILES: O=[N+]([O-])c1ccccc1CNCCc1c[nH]c2ccccc12 [CAS 355816-45-4, 2-(1H-indol-3-yl)-N-(2-nitrobenzyl)ethanamine]
- MIC [2, 5]: 128 µg/mL (≈ 433 µM)

SMILES: O=C(Nc1ccc(Oc2ccc(NC(=O)Nc3ccccc3Cl)cc2)cc1)Nc1ccccc1Cl [NSC 80731, 1-(2-chlorophenyl)-3-[4-[4-[(2-chlorophenyl)carbamoylamino]phenoxy]phenyl]urea]
- MIC [2, 6]: 80 µg/mL (≈ 158 µM)
